Test results as given in patent publication US12358915B2, “METTL3 inhibitory compounds” (STORM THERAPEUTICS LTD., priority 2019, dated 2025).

Columns and labels:
[1] = target: T1, METTL3/14 (Homo sapiens, UniProt Q86U44); assay: METTL3/14 methyltransferase assay (METTL3_14 RFMS, RapidFire mass spectrometry); type: biochemical; conditions: 5 nM METTL3/14, 0.2 μM RNA substrate, 0.5 μM SAM; lower limit of the assay IC50=5 nM; Compounds 266-351; read-out: METTL3_14 RFMS IC50;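 further: recombinant His-tagged METTL3 with FLAG-tagged METTL14 from baculovirus, SAH product quantified by mass spectrometry against isotope-labelled internal standards, 60 min at room temperature, scaled between no-RNA and DMSO-only wells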
T1 construct: The enzyme used was full-length his-tagged METTL3; His; made in house
T1 sequence (Q86U44 whole entry): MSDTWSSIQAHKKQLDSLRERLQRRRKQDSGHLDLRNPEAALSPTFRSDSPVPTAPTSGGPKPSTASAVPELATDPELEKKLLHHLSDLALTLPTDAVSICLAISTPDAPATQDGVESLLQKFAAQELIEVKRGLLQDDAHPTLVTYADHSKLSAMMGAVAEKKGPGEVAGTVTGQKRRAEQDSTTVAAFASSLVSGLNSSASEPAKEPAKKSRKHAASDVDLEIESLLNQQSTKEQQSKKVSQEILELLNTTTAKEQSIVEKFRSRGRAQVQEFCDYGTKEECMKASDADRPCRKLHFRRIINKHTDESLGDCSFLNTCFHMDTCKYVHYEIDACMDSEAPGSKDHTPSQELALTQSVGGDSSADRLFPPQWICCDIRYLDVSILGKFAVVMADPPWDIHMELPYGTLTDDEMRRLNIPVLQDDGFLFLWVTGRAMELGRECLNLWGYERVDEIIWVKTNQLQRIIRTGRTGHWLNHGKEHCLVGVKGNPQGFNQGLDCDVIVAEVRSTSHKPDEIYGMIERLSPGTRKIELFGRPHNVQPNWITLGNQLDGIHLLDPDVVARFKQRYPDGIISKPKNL
T1 sequence (Q9HCE5 whole entry partner): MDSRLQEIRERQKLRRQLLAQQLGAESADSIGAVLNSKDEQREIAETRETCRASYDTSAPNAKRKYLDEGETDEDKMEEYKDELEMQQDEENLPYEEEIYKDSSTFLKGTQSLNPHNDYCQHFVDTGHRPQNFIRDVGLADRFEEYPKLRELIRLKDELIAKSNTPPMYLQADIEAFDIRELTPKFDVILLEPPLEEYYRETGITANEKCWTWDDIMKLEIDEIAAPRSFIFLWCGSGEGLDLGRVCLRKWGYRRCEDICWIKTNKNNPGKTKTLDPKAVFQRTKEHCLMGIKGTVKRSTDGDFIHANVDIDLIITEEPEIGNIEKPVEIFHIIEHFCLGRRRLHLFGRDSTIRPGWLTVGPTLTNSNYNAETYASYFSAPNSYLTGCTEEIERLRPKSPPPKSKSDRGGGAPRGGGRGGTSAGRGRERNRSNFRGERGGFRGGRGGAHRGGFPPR

[2] = system: MOLM-13 cells; assay: MOLM13 CTG - analysis of cell proliferation (Cell Titre Glo); type: cell-based; conditions: Homo sapiens, geometric mean, read-out: CTG MOLM13 cells IC50 GEOMEAN
[3] = system: Caov-3 cells; assay: Caov3 CTG assay - proliferation assay; type: cell-based; conditions: Homo sapiens, 120 hours treatment, 30 μM top concentration, CellTiter-Glo, geometric mean, read-out: CTG Caov3 cells IC50 GEOMEAN
Protocol: Upon treatment, Coav-3 cells were incubated for 10 min at RT with the CellTiter-Glo reagent (G7571, Promega). Measurement of the luminescence signal was performed on a microplate reader (Ensight, PerkinElmer).

IC50 [1]	IC50 [2]	Structure (SMILES)	IC50 [3]
0.00749 µM	1.19 µM	N#Cc1cc(-c2cn(Cc3cn4cc(CNCC5CCC5)ccc4n3)nn2)c2cn[nH]c2c1 [Example 338, 4-{1-[(6-{[(cyclobutylmethyl)amino]methyl}imidazo[1,2-a]pyridin-2-yl)methyl]-1H-1,2,3-triazol-4-yl}-1H-indazole-6-carbonitrile]	1.11 µM
0.0101 µM	3.07 µM	c1cc(-c2cn(Cc3cn4cc(CNCC5CCC5)ccc4n3)cn2)c2cn[nH]c2c1 [Example 339, N-(cyclobutylmethyl)-1-[2-[[4-(1H-indazol-4-yl)imidazol-1-yl]methyl]imidazo[1,2-a]pyridin-6-yl]methanamine]	0.849 µM
0.0061 µM	0.93 µM	COc1cc(-c2cn(Cc3cn4cc(CNCC5(OC)CCC5)ccc4n3)nn2)c2cn[nH]c2c1 [Example 343, N-[(1-methoxycyclobutyl)methyl]-1-[2-[[4-(6-methoxy-1H-indazol-4-yl)triazol-1-yl]methyl]imidazo[1,2-a]pyridin-6-yl]methanamine]	0.554 µM
